Measurements from ChEMBL document CHEMBL1124905, “Synthesis of new (+-)-3,5-dihydroxypentyl nucleoside analogues from 1-amino-5-(benzyloxy)pentan-3-ol and their antiviral evaluation” (J Med Chem, 1990).
Calls of active or inactive are those of the source. The calls are words filed in the database; no cut-off is given here.

What was measured:
[1] = test system: Human immunodeficiency virus 1; assay: Antiviral activity against HIV-1 was determined; No inhibition; assay type: functional, organism-based
Human betaherpesvirus 5 = assay: Antiviral activity against HCMV was determined; No inhibition; assay type: functional, organism-based
Human alphaherpesvirus 1 [2] = assay: Concentration required for suppression of the CPE (Cytopathic effect) of HSV-1; assay type: functional, organism-based; details: herpes simplex virus
[3] = Compound tested for toxic activity at 100 ug/mL; Not toxic; assay type: ADME
Human alphaherpesvirus 1 [4] = assay: Compound tested for inhibition of theCPE (Cytopathic effect) of HSV-1 at 12.5 ug/mL; assay type: functional, herpes simplex virus
MRC5 = assay: Concentration required for cytotoxicity of MRC5 cell line was determined; assay type: functional, cell-based; details: Homo sapiens

| Compound | inhibition [1] | inhibition (Human betaherpesvirus 5) | further results |
| --- | --- | --- | --- |
| Nc1ncnc2c1ncn2C[C@H](O)CO | inactive | inactive |  |
| Nc1ccn(CCC(O)CCO)c(=O)n1 (configuration not stated) | inactive | inactive |  |
| Nc1nc(O)c2ncn(CC[C@H](O)CCO)c2n1 | inactive | inactive | Concentration (Human alphaherpesvirus 1 [2]): 50 µg/mL; Toxicity [3]: Non-toxic; inhibition at 12.5 µg/mL (Human alphaherpesvirus 1 [4]): 50% |
| Nc1nc2c(ncn2CCCCO)c(=O)[nH]1 | inactive | inactive |  |
| Nc1ncnc2c1ncn2C=C=CCO | inactive | inactive |  |
| Nc1nc2c(ncn2CC[C@@H](O)CO)c(=O)[nH]1 | inactive | inactive |  |
| Nc1ncnc2c1ncn2C[C@@H](CO)OCP(=O)(O)O | inactive | inactive |  |
| Nc1nc2c(ncn2COC(CO)CO)c(=O)[nH]1 |  |  | NA [1]: inactive; NA (Human betaherpesvirus 5): inactive |
| Nc1nc2c(ncn2COCCO)c(=O)[nH]1 | inactive | inactive |  |
| Nc1ncnc2c1ncn2CCOCP(=O)(O)O | inactive | inactive |  |
| Nc1nc(O)c2ncn(CCC(CO)CO)c2n1 | inactive | inactive |  |
| Cc1cn(CCC(O)CCO)c(=O)[nH]c1=O (configuration not stated) | inactive | inactive |  |
| Nc1ncnc2c1ncn2CCC(O)CCO (configuration not stated) | inactive | inactive | Concentration (MRC5): 25 µg/mL |
| Nc1nc(O)c2ncn(CC(CO)CCO)c2n1 (configuration not stated) | inactive | inactive |  |
